Several values for one entry are separate records, joined by “and”; a condition that tells them apart may be missing. Equal values may be shown once. Inconclusive results and toxic doses are left out. Square brackets hold non-standard residues; d marks the D form. Peptide text beside a SMILES is read from it. * marks the point of attachment. ξ: configuration not given here. Cbz = O=C(OCc1ccccc1)*; ξT = CC(O)C(N)C(=O)O

In this assay the test system is P388 leukemia ip, CD2F1 mice, survival T/C. Description: NCI In Vivo Anticancer Drug Screen. Data for tumor model P388 Leukemia (intraperitoneal) in CD2F1 (CDF1) mice. The settings on record: endpoint: median survival time, higher = longer survival. In short, it runs like this: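 Mice carrying the transplanted tumor received test compound or vehicle. Survival was recorded in each group, and the value is the treated-group measurement divided by that of the vehicle-treated control group.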

[1] abbreviates: dose: 12.5 mg/kg/injection, schedule: Q01DX009 (ip), vehicle: saline.
[2] abbreviates: dose: 25.0 mg/kg/injection, schedule: Q01DX009 (ip), vehicle: saline.
[3] abbreviates: dose: 50.0 mg/kg/injection, schedule: Q01DX009 (ip), vehicle: saline.
[4] abbreviates: dose: 100.0 mg/kg/injection, schedule: Q01DX009 (ip), vehicle: saline.
Setting [5] is: dose: 50.0 mg/kg/injection, schedule: Q01DX005 (ip), vehicle: Klucel (hydroxypropylcellulose) (HPC).
[6] abbreviates: dose: 100.0 mg/kg/injection, schedule: Q01DX005 (ip), vehicle: Klucel (hydroxypropylcellulose) (HPC).
Where [7] appears, read: dose: 200.0 mg/kg/injection, schedule: Q01DX005 (ip), vehicle: Klucel (hydroxypropylcellulose) (HPC).
[8] abbreviates: dose: 100.0 mg/kg/injection, schedule: Q01DX001 (ip), vehicle: saline with Tween-80.
Where [9] appears, read: dose: 200.0 mg/kg/injection, schedule: Q01DX001 (ip), vehicle: saline with Tween-80.
[10] abbreviates: dose: 400.0 mg/kg/injection, schedule: Q01DX001 (ip), vehicle: saline with Tween-80.
Setting [11] is: dose: 100.0 mg/kg/injection, schedule: Q01DX001 (ip), vehicle: Klucel (hydroxypropylcellulose) (HPC).
[12] abbreviates: dose: 60.0 mg/kg/injection, schedule: Q01DX005 (ip), vehicle: saline with Tween-80.
Where [13] appears, read: dose: 120.0 mg/kg/injection, schedule: Q01DX005 (ip), vehicle: saline with Tween-80.
[14] abbreviates: dose: 240.0 mg/kg/injection, schedule: Q01DX005 (ip), vehicle: saline with Tween-80.

Regarding `C1CNCCN1`, the T/C under setting [1] is 113 % of control and 96 % of control; the T/C (dose: 12.5 mg/kg/injection, schedule: Q01DX009 (ip), vehicle: suspension in saline) is 93 % of control; the T/C under setting [2] was 114 % of control and 96 % of control; the T/C under setting [3] was 94 % of control and 97 % of control; the T/C under setting [4] is 89 % of control; the T/C (dose: 100.0 mg/kg/injection, schedule: Q01DX009 (ip), vehicle: suspension in saline) was 97 % of control. In addition, the T/C is, setting by setting: (dose: 150.0 mg/kg/injection, schedule: Q01DX009 (ip), vehicle: saline) 100 % of control and 114 % of control; (dose: 150.0 mg/kg/injection, schedule: Q01DX009 (ip), vehicle: suspension in saline) 93 % of control.
In the case of `CC(O)C(NC(=O)OCc1ccccc1)C(=O)NCC(N)=O` (centres undefined) (Cbz-[ξT]-Gly-NH2), the T/C under setting [5] is 101 % of control, the T/C under setting [6] is 115 % of control and the T/C under setting [7] is 101 % of control.
For the compound `O=C(O)Cc1ccc([N+](=O)[O-])cc1[N+](=O)[O-]`, the T/C reads like this: under setting [1], 100 % of control; under setting [2], 92 % of control; under setting [3], 100 % of control; under setting [4], 91 % of control.
In the case of `COC(=O)[C@]12C(=O)C=CC(=O)C1CC=CC2C(OC(C)=O)C(COC(C)=O)OC(C)=O` (some centres undefined), the T/C reads like this: under setting [8], 103 % of control; under setting [9], 100 % of control; under setting [10], 103 % of control.
Consider `CC1CC(=O)CCC2(C)C(OC(C)(C)C)CCC12` (centres undefined), for which the T/C by setting is: under setting [5], 100 % of control; under setting [6], 99 % of control; under setting [7], 99 % of control.
`CC1CCC(C(C)C2C(O)CC3C4CCC5CC(N)CCC5(C)C4CCC32C)=NC1` (centres undefined) (tested in a mixture with another compound): the T/C was 100 % of control (dose: 6.25 mg/kg/injection, schedule: Q01DX009 (ip), vehicle: Klucel (hydroxypropylcellulose) (HPC)); 94 % of control (dose: 12.5 mg/kg/injection, schedule: Q01DX009 (ip), vehicle: Klucel (hydroxypropylcellulose) (HPC)); 105 % of control (dose: 25.0 mg/kg/injection, schedule: Q01DX009 (ip), vehicle: Klucel (hydroxypropylcellulose) (HPC)).
Take `O=S1(=O)CCC(c2ccccc2)C1` (centres undefined): the T/C was 100 % of control (dose: 12.5 mg/kg/injection, schedule: Q01DX009 (ip), vehicle: saline with Tween-80); 105 % of control (dose: 25.0 mg/kg/injection, schedule: Q01DX009 (ip), vehicle: saline with Tween-80); 97 % of control (dose: 50.0 mg/kg/injection, schedule: Q01DX009 (ip), vehicle: saline with Tween-80).
Take `COC(=O)C1=CO[C@@H](OC2OC(CO)C(O)C(O)C2O)[C@@H]2[C@@H](CO)[C@@H](O)[C@@H](OC(=O)/C=C/c3ccc(O)c(O)c3)[C@H]12` (some centres undefined): the T/C reads like this: (dose: 7.25 mg/kg/injection, schedule: Q01DX005 (ip), vehicle: saline + alcohol) 106 % of control; (dose: 14.5 mg/kg/injection, schedule: Q01DX005 (ip), vehicle: saline + alcohol) 107 % of control; (dose: 29.0 mg/kg/injection, schedule: Q01DX005 (ip), vehicle: saline + alcohol) 109 % of control; (dose: 58.0 mg/kg/injection, schedule: Q01DX005 (ip), vehicle: saline + alcohol) 113 % of control.
`CC1CC2=C(C1)C(C1(C)C(=O)CC3C(C1=O)C3(C)C)C(C)C2=O` (centres undefined): the T/C was 100 % of control (dose: 12.5 mg/kg/injection, schedule: Q01DX001 (ip), vehicle: Klucel (hydroxypropylcellulose) (HPC)); 96 % of control (dose: 25.0 mg/kg/injection, schedule: Q01DX001 (ip), vehicle: Klucel (hydroxypropylcellulose) (HPC)); 102 % of control (dose: 50.0 mg/kg/injection, schedule: Q01DX001 (ip), vehicle: Klucel (hydroxypropylcellulose) (HPC)); 96 % of control under setting [11].
On to `O=C(NCCCl)Oc1ccc(F)cc1`, for which the T/C is, setting by setting: under setting [5], 100 % of control; under setting [6], 100 % of control; under setting [7], 110 % of control.
As to `COc1cc2cc(c1Cl)N(C)C(=O)C[C@H](OC(=O)[C@H](C)N(C)C(=O)CC(C)C)[C@]1(C)O[C@H]1[C@H](C)[C@@H]1C[C@@](O)(NC(=O)O1)[C@H](OC)C=C/C=C(\C)C2`, the T/C is 107 % of control (dose: 0.1 micrograms/kg/injection, schedule: Q01DX009 (ip), vehicle: saline); 107 % of control (dose: 0.2 micrograms/kg/injection, schedule: Q01DX009 (ip), vehicle: saline); 114 % of control (dose: 0.4 micrograms/kg/injection, schedule: Q01DX009 (ip), vehicle: saline); 158 % of control (dose: 6.3 micrograms/kg/injection, schedule: Q01DX009 (ip), vehicle: saline + alcohol); 169 % of control (dose: 12.5 micrograms/kg/injection, schedule: Q01DX009 (ip), vehicle: saline + alcohol); 198 % of control (dose: 25.0 micrograms/kg/injection, schedule: Q01DX009 (ip), vehicle: saline + alcohol).
For the compound `C=CCc1c(O)c(OC)cc2c1C(=O)CCCC2`, the T/C (dose: 100.0 mg/kg/injection, schedule: Q01DX009 (ip), vehicle: Klucel (hydroxypropylcellulose) (HPC)) was 100 % of control; the T/C (dose: 200.0 mg/kg/injection, schedule: Q01DX009 (ip), vehicle: Klucel (hydroxypropylcellulose) (HPC)) was 94 % of control; the T/C (dose: 400.0 mg/kg/injection, schedule: Q01DX009 (ip), vehicle: Klucel (hydroxypropylcellulose) (HPC)) was 94 % of control.
On to `COC(=O)Nc1cnc(C=O)c(C)c1-c1ccc(OC)c(OC)c1OCc1ccccc1`, for which the T/C runs as follows: (dose: 12.5 mg/kg/injection, schedule: Q01DX009 (ip), vehicle: other) 111 % of control; (dose: 25.0 mg/kg/injection, schedule: Q01DX009 (ip), vehicle: other) 119 % of control; (dose: 50.0 mg/kg/injection, schedule: Q01DX009 (ip), vehicle: other) 110 % of control; (dose: 100.0 mg/kg/injection, schedule: Q01DX009 (ip), vehicle: other) 103 % of control; (dose: 200.0 mg/kg/injection, schedule: Q01DX009 (ip), vehicle: other) 117 % of control; (dose: 400.0 mg/kg/injection, schedule: Q01DX009 (ip), vehicle: other) 90 % of control.
`CCOC(=O)NC(NC(=O)OCC)C(=O)Nc1cccc2c(OC(=O)C(NC(=O)OCC)NC(=O)OCC)c(N=Nc3ccc(S(=O)(=O)Nc4nccs4)cc3)cc(N=Nc3ccc(S(=O)(=O)Nc4nccs4)cc3)c12` (tested in a mixture with another compound): the T/C (dose: 50.0 mg/kg/injection, schedule: Q01DX005 (ip), vehicle: saline with Tween-80) is 117 % of control; the T/C (dose: 100.0 mg/kg/injection, schedule: Q01DX005 (ip), vehicle: saline with Tween-80) was 112 % of control and 94 % of control.
Turning to `O=c1[nH]c2c(c(=O)n1CC(O)CO)CCCC2` (centres undefined), the T/C under setting [12] was 104 % of control, the T/C under setting [13] is 100 % of control and the T/C under setting [14] was 100 % of control.
On to `COc1ccc2nccc(C(=O)CCC3CCN(C(=O)c4ccc([N+](=O)[O-])cc4)CC3C(Br)CBr)c2c1` (centres undefined), for which the T/C (dose: 100.0 mg/kg/injection, schedule: Q04DX002 (ip), vehicle: saline with Tween-80) is 108 % of control and the T/C (dose: 200.0 mg/kg/injection, schedule: Q04DX002 (ip), vehicle: saline with Tween-80) was 105 % of control.
For `COc1ncnc2nc(Cl)[nH]c12`, the T/C is, setting by setting: under setting [5], 100 % of control; under setting [6], 102 % of control.
For `CCCCCCC(CCC1CCCCC1)C(=O)O` (centres undefined), the T/C was 109 % of control (dose: 50.0 mg/kg/injection, schedule: Q01DX001 (ip), vehicle: saline with Tween-80); 109 % of control under setting [8]; 100 % of control under setting [9].
For the compound `NC1=NN(Cc2csc(-c3ccccc3)n2)C(=O)C1`, the T/C under setting [12] was 103 % of control, the T/C under setting [13] is 95 % of control and the T/C under setting [14] is 103 % of control.
On to `C1CC2CC1C13OC1C1(CC1)C1OC213` (centres undefined), for which the T/C was 106 % of control and 123 % of control under setting [11]; 109 % of control (dose: 200.0 mg/kg/injection, schedule: Q01DX001 (ip), vehicle: Klucel (hydroxypropylcellulose) (HPC)); 157 % of control (dose: 400.0 mg/kg/injection, schedule: Q01DX001 (ip), vehicle: Klucel (hydroxypropylcellulose) (HPC)).
Regarding `O=C(Nc1ccc(Cl)cc1)/C(Cl)=C1/Sc2ccccc2NC1=O`, the T/C under setting [8] was 97 % of control, the T/C under setting [9] is 91 % of control and the T/C under setting [10] is 91 % of control.

The values are drawn from PubChem BioAssay AID330 (DTP/NCI, 2004).
